From patent US12029789B2, “Agent for use in the treatment of glioma” (DC EUROPA LIMITED, priority 2015, dated 2024)

Experiments:
[1] = test system: S24 GBMSC astrocytoma cells; assay: In vivo calcium imaging with MPLSM: intercellular calcium waves (frequency, synchronicity of calcium peaks) in tumor cells; design: species or system mouse
Description: The following small molecule calcium indicators were used: for GFP-transfected tumor cells: 2 mM Rhod-2AM (life technologies, R-1244); for RFP-transfected: 2 mM Fluo-4AM (life technologies, F-14201). The dissolved dyes were applied to the brain surface for 45 min. Regions with a similar tumor cell density were used. […] Pharmacological gap junction inhibition was achieved by superfusion with the gap junction inhibitor CBX (100 μM; control substance: extracellular saline; n=3 mice per group).
Two genetically-encoded calcium indicators were lentivirally transduced to GBMSCs: (A) The Lck-GCaMP3 sensor in the rrl-CAG-IGC3 vector (CAG promoter to control expression of DsRed and the Ca^2+ sensor that monitors near-membrane changes in [Ca^2+]i). (B) The radiometric calcium sensor Twitch-3 was used to determine intracellular calcium concentrations by Förster Resonance Energy Transfer (FRET) as known in the art.
Tumor cells or non-malignant brain astrocytes were marked manually by the use of the ROI Manager of ImageJ. Mean gray values were measured over time. […] Local maxima of calcium signals were detected by the findpeaks function (signal package, Octave-Forge). Thus, the number of calcium peaks of each cell (N) could be determined and the frequency (f) was calculated. The frequency was standardized for the cell number of each region to ensure comparability. Synchronous cells, the number of synchronous communications, and the time point of the synchronous firing were determined. Due to the fact that the images were recorded via a line mode, which leads to a latency of signal detection, the analysis was done in a window of 2 frames around each peak. This allowed to assess the synchronicity S (S∈R^+∪{0}), which was defined as the fraction of the whole number of synchronous cells (N_Syn) divided by the number of calcium peaks for the given cell (N_Ca). In case the cells were not active, a synchronicity of zero was allotted.
For example, in a system with a synchronicity of 1, a firing cell interacts with a second one. […]

[2] = test system: S24 GBMSCs; assay: Intratumoral microinjection of sulforhodamine 101 (SR101): dye distribution in TM-connected tumor cell network; assay type: in vivo, mouse; details: SR101 100 μM co-injected with 100 μM CBX, 120 min after injection; FIG. 7G
Description: For intratumoral microinjection of sulforhodamine 101 (SR101, Molecular Probes, S-359), 50 nl of 100 μM SR101 (with or without 100 μM CBX, Sigma-Aldrich, C4790) were injected with a very thin glass pipette into tumor regions of similar cellular densities, >90 days after tumor injection.
For in vivo imaging data, TM numbers, branches/TM and connections/cell were counted manually, and TM lengths were measured manually in the slice mode in Imaris. For quantification and analysis of tumor cells/TMs before and after radiotherapy, cells were counted in the same regions before radiation or sham radiation, and at different time points afterwards. Cells without a TM-connection were defined as “non-connected” and cells with at least one TM-connection(s) as “connected”. To analyze the number of TMs before and after irradiation, the TMs of individual, identical cells were counted at both time points. Ratios were calculated to determine the relative changes of cell and TM numbers over time. For the measurement of tumor volumes in BT088 tumors before and after radiotherapy, two regions were analyzed per animal using the surface function of Imaris. The mean speed of tumor cell invasion in S24 shControl vs. shGAP-43 tumors was determined by analysis of three consecutive imaging time points within a 24 hour time interval in vivo. […] They were connected to tracks and the mean track speed was calculated. […]

[3] = test system: normal brain astrocytes; assay: In vivo calcium imaging with MPLSM: calcium waves in co-registered normal brain astrocytes; design: species or system mouse; details: superfusion with suramin 100 μM (ATP receptor blockade); FIG. 8D
Description: The following small molecule calcium indicators were used: for GFP-transfected tumor cells: 2 mM Rhod-2AM (life technologies, R-1244); for RFP-transfected: 2 mM Fluo-4AM (life technologies, F-14201). The dissolved dyes were applied to the brain surface for 45 min. Regions with a similar tumor cell density were used. For the combination of radiotherapy and calcium imaging, mice were pretreated with Fluo-4AM and imaged after awaking with low isoflurane (0.5%). One hour after radiotherapy, the same regions were imaged again to detect changes in calcium activity. Pharmacological gap junction inhibition was achieved by superfusion with the gap junction inhibitor CBX (100 μM; control substance: extracellular saline; n=3 mice per group). […]
Tumor cells or non-malignant brain astrocytes were marked manually by the use of the ROI Manager of ImageJ. Mean gray values were measured over time. […] Local maxima of calcium signals were detected by the findpeaks function (signal package, Octave-Forge). Thus, the number of calcium peaks of each cell (N) could be determined and the frequency (f) was calculated. […] Synchronous cells, the number of synchronous communications, and the time point of the synchronous firing were determined. Due to the fact that the images were recorded via a line mode, which leads to a latency of signal detection, the analysis was done in a window of 2 frames around each peak. […]

For `NCCOB(c1ccccc1)c1ccccc1` [2-APB, 2-aminoethoxydiphenyl borate], the “ICWs between astrocytoma cells” value ([1]; superfusion with 2-APB 100 μM (inhibitor of IP3 receptors), FIG. 8D) was “reduced ICWs”.

`CC1(C)[C@@H](OC(=O)CCC(=O)O)CC[C@]2(C)[C@H]3C(=O)C=C4[C@@H]5C[C@@](C)(C(=O)O)CC[C@]5(C)CC[C@@]4(C)[C@]3(C)CC[C@@H]12` [CBX, carbenoxolone] was tested, and the “frequency and synchronicity of ICWs in GBMSC astrocytoma cells” value ([1]; brain superfusion with 100 μM carbenoxolone (CBX) vs. extracellular saline, S24, FIG. 7E) was “reduced” and the “distribution of sulforhodamine 101 in the TM-connected tumor cell network” value [2] was “inhibited”.

In the case of `Cc1ccc(C(=O)Nc2ccc(S(=O)(=O)O)c3cc(S(=O)(=O)O)cc(S(=O)(=O)O)c23)cc1NC(=O)c1cccc(NC(=O)Nc2cccc(C(=O)Nc3cc(C(=O)Nc4ccc(S(=O)(=O)O)c5cc(S(=O)(=O)O)cc(S(=O)(=O)O)c45)ccc3C)c2)c1` [suramin], the “ICWs in malignant astrocytic cells” value ([1]; superfusion with suramin 100 μM (ATP receptor blockade), FIG. 8D) is reported as “reduced ICWs” and the “ICWs in normal astrocytic cells” value [3] is reported as “reduced ICWs”.
